Measured values taken from the kinase profiling compilation of Christmann-Franck et al. (2016).
Blank lines part the entries; values can stand above or below the compound they belong to.

Experiments:
Test in all cases: radiometric filter-binding kinase assay, Kinase HotSpot
Conditions in all cases: compound 0.5 µM; ATP 10 µM
ACVRL1 (human) = ACVRL1 (human) (UniProt P37023)
BTK (human) = BTK (human) (UniProt Q06187)
CAMK2A (human) = CAMK2A (human) (UniProt Q9UQM7)
CLK3 (human) = CLK3 (human) (UniProt P49761)
CSNK1D (human) = CSNK1D (human) (UniProt P48730)
CSNK1E (human) = CSNK1E (human) (UniProt P49674)
CSNK1G1 (human) = CSNK1G1 (human) (UniProt Q9HCP0)
CSNK1G3 (human) = CSNK1G3 (human) (UniProt Q9Y6M4)
DDR2 (human) = DDR2 (human) (UniProt Q16832)
DYRK3 (human) = DYRK3 (human) (UniProt O43781)
EPHA1 (human) = EPHA1 (human) (UniProt P21709)
EPHA8 (human) = EPHA8 (human) (UniProt P29322)
EPHB3 (human) = EPHB3 (human) (UniProt P54753)
Chain of EPHB3 (human) (P54753 whole entry, looked up): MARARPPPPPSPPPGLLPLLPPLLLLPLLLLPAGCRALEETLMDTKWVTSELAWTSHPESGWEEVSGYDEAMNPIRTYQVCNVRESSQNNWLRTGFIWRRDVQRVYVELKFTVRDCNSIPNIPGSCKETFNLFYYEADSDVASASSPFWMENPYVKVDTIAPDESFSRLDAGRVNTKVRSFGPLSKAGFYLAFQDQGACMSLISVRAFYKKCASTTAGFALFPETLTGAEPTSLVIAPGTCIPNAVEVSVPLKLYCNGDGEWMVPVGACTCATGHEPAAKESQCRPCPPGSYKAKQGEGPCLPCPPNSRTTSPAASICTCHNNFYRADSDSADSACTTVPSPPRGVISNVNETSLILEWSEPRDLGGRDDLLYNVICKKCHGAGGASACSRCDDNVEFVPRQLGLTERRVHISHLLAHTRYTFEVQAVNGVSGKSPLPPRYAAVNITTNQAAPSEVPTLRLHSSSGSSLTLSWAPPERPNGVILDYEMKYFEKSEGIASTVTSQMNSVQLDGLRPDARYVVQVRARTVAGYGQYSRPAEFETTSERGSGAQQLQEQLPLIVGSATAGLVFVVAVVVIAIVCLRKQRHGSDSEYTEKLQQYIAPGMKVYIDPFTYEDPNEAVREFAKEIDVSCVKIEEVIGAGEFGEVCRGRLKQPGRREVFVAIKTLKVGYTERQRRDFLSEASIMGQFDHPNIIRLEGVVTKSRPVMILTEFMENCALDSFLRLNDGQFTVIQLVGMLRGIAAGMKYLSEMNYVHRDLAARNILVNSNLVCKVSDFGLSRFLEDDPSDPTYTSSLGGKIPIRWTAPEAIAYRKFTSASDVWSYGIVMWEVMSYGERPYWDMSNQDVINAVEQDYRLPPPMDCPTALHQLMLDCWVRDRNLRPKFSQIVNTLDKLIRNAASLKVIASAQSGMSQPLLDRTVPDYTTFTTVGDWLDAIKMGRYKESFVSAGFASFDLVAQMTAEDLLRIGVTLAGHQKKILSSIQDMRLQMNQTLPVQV

FGFR2 (human) = FGFR2 (human) (UniProt P21802)
FGFR3 (human) = FGFR3 (human) (UniProt P22607)
GSK3A (human) = GSK3A (human) (UniProt P49840)
Chain of GSK3A (human) (P49840 whole entry, looked up): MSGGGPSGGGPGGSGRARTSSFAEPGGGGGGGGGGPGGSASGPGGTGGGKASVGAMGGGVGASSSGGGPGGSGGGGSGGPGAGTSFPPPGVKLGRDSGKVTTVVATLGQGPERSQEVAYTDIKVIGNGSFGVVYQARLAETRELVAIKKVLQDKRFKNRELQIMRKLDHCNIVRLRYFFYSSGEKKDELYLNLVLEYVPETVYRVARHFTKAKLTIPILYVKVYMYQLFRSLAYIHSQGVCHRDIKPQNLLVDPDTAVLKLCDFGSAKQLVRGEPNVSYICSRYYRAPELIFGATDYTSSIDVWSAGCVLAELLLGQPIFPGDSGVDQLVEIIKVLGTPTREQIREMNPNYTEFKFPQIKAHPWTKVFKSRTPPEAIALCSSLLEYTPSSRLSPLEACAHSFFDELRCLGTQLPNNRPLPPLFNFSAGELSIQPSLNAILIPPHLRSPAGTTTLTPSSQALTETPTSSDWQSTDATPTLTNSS

HCK (human) = HCK (human) (UniProt P08631)
JAK2 JH1 JH2 (human) = JAK2 JH1 JH2 (human) (UniProt O60674)
MAP3K3 (human) = MAP3K3 (human) (UniProt Q99759)
MAP4K2 (human) = MAP4K2 (human) (UniProt Q12851)
MARK2 (human) = MARK2 (human) (UniProt Q7KZI7)
MATK (human) = MATK (human) (UniProt P42679)
MERTK (human) = MERTK (human) (UniProt Q12866)
MST1R (human) = MST1R (human) (UniProt Q04912)
MUSK (human) = MUSK (human) (UniProt O15146)
NEK11 (human) = NEK11 (human) (UniProt Q8NG66)
Chain of NEK11 (human) (Q8NG66 whole entry, looked up): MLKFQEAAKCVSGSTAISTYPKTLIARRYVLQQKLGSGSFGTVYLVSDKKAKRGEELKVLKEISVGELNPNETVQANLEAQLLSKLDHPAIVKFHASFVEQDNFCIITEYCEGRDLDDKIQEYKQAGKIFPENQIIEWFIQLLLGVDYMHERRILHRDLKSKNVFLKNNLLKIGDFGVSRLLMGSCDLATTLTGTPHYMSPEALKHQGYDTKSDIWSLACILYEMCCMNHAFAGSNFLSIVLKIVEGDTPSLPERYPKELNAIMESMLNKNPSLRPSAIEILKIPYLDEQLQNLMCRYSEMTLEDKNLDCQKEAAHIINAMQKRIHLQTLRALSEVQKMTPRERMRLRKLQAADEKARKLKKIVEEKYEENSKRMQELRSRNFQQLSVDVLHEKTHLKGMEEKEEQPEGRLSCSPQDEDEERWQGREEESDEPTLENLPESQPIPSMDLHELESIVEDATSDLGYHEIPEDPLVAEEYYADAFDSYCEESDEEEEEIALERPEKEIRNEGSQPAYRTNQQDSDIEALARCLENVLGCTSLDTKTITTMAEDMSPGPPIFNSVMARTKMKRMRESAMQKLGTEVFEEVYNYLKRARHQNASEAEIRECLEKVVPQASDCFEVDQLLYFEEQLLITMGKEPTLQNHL

NEK4 (human) = NEK4 (human) (UniProt P51957)
Chain of NEK4 (human) (P51957 whole entry, looked up): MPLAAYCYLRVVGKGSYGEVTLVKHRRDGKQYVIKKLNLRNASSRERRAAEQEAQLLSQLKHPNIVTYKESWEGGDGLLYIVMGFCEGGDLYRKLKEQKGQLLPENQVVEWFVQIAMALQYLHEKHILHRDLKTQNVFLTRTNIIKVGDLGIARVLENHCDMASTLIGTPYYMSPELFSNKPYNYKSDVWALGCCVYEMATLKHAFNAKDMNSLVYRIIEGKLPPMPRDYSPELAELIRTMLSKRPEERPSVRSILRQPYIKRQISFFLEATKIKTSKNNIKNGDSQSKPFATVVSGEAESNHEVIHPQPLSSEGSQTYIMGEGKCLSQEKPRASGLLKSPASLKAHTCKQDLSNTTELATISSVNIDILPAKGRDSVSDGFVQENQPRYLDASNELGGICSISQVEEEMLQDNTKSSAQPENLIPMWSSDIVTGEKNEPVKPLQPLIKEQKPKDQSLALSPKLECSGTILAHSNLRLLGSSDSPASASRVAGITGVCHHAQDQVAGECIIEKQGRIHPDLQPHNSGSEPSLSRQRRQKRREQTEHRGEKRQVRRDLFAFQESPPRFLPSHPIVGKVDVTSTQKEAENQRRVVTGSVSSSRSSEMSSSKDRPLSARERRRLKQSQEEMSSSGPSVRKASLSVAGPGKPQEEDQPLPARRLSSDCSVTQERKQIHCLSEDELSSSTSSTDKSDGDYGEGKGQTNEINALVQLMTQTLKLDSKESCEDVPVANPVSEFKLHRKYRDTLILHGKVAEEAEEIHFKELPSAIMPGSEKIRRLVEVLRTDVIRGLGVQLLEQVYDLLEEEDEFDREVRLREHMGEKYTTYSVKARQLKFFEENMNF

NTRK2 (human) = NTRK2 (human) (UniProt Q16620)
Chain of NTRK2 (human) (Q16620 whole entry, looked up): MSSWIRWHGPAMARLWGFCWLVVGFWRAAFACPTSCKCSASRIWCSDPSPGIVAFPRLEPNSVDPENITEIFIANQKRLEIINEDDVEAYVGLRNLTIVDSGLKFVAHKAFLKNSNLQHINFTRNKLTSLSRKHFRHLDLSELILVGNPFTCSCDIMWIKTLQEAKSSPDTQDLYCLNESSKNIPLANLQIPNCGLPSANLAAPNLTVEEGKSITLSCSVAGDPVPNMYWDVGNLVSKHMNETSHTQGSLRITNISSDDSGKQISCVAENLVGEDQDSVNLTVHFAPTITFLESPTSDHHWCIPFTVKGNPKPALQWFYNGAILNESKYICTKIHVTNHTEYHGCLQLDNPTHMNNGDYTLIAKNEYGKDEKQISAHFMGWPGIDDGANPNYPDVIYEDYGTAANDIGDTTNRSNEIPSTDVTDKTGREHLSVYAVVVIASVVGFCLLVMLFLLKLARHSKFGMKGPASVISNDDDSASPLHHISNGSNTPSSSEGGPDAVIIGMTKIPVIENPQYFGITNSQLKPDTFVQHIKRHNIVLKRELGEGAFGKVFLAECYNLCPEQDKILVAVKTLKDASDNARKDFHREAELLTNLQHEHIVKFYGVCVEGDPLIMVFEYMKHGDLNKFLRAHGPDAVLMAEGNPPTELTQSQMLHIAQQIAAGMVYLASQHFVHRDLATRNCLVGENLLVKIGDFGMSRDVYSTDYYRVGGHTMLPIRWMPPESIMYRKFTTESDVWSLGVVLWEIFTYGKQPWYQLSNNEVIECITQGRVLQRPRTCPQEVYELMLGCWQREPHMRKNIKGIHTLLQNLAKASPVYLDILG

NUAK1 (human) = NUAK1 (human) (UniProt O60285)
PHKG1 (human) = PHKG1 (human) (UniProt Q16816)
Chain of PHKG1 (human) (Q16816 whole entry, looked up): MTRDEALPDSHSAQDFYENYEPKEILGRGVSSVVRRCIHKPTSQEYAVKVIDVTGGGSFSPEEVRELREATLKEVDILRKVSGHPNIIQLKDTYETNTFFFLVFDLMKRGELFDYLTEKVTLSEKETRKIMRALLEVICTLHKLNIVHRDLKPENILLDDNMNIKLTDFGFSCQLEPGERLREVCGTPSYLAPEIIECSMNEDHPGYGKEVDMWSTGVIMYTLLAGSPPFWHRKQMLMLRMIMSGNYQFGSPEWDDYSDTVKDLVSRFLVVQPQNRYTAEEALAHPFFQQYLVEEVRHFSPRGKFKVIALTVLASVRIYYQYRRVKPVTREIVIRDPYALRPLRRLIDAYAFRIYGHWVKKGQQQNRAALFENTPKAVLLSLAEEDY

PIM1 (human) = PIM1 (human) (UniProt P11309)
Chain of PIM1 (human) (P11309 whole entry, looked up): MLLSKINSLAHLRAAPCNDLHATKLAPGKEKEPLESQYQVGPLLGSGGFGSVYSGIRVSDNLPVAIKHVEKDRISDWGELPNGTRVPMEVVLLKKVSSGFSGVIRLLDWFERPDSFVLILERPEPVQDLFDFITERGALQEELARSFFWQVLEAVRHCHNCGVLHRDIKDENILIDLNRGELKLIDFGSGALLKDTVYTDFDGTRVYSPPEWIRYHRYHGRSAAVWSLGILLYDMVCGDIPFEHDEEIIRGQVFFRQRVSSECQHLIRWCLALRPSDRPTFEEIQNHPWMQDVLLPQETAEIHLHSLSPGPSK

PIM3 (human) = PIM3 (human) (UniProt Q86V86)
PLK1 (human) = PLK1 (human) (UniProt P53350)
PLK2 (human) = PLK2 (human) (UniProt Q9NYY3)
PRKX (human) = PRKX (human) (UniProt P51817)
SGK3 (human) = SGK3 (human) (UniProt Q96BR1)
SIK2 (human) = SIK2 (human) (UniProt Q9H0K1)
STK11 (human) = STK11 (human) (UniProt Q15831)
STK17A (human) = STK17A (human) (UniProt Q9UEE5)
TSSK2 (human) = TSSK2 (human) (UniProt Q96PF2)
TYRO3 (human) = TYRO3 (human) (UniProt Q06418)
WNK2 (human) = WNK2 (human) (UniProt Q9Y3S1)

Chain of ACVRL1 (human) (P37023 whole entry, looked up): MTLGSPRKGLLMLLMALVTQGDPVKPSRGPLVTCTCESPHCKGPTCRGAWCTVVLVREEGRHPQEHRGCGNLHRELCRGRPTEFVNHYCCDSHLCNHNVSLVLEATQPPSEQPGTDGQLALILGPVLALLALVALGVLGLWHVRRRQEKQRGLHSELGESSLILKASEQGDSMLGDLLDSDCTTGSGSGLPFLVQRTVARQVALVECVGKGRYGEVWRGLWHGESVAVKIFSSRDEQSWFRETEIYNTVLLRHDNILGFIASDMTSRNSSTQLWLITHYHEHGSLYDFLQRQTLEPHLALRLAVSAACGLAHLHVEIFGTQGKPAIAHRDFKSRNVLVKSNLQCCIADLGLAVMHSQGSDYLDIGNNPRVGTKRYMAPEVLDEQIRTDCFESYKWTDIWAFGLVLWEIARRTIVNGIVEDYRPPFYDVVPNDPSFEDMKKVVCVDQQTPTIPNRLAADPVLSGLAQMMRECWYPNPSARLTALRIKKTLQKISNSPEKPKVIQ

SMILES: N#CC(C#N)=C(N)/C(C#N)=C/c1ccc(O)cc1
- residual activity (ACVRL1 (human)): 88.8%
- residual activity (BTK (human)): 99.7%
- residual activity (CAMK2A (human)): 103%
- residual activity (CLK3 (human)): 100%
- residual activity (CSNK1D (human)): 98.7%
- residual activity (CSNK1E (human)): 92.4%
- residual activity (CSNK1G1 (human)): 93.4%
- residual activity (CSNK1G3 (human)): 100%
- residual activity (DDR2 (human)): 97.6%
- residual activity (DYRK3 (human)): 97.7%
- residual activity (EPHA1 (human)): 103%
- residual activity (EPHA8 (human)): 102%
- residual activity (EPHB3 (human)): 99.5%
- residual activity (FGFR2 (human)): 102%
- residual activity (FGFR3 (human)): 98.9%
- residual activity (GSK3A (human)): 91.1%
- residual activity (HCK (human)): 98.6%
- residual activity (JAK2 JH1 JH2 (human)): 102%
- residual activity (MAP3K3 (human)): 78.6%
- residual activity (MAP4K2 (human)): 100%
- residual activity (MARK2 (human)): 91.3%
- residual activity (MATK (human)): 92.5%
- residual activity (MERTK (human)): 93.5%
- residual activity (MST1R (human)): 102%
- residual activity (MUSK (human)): 103%
- residual activity (NEK11 (human)): 97.2%
- residual activity (NEK4 (human)): 93.3%
- residual activity (NTRK2 (human)): 95.4%
- residual activity (NUAK1 (human)): 92.3%
- residual activity (PHKG1 (human)): 92.5%
- residual activity (PIM1 (human)): 103%
- residual activity (PIM3 (human)): 91.3%
- residual activity (PLK1 (human)): 60.8%
- residual activity (PLK2 (human)): 99.9%
- residual activity (PRKX (human)): 93.7%
- residual activity (SGK3 (human)): 103%
- residual activity (SIK2 (human)): 87.7%
- residual activity (STK11 (human)): 96.5%
- residual activity (STK17A (human)): 72.8%
- residual activity (TSSK2 (human)): 94.6%
- residual activity (TYRO3 (human)): 99.3%

SMILES: Oc1cccc(-c2nc(N3CCOCC3)c3oc4ncccc4c3n2)c1
- residual activity (ACVRL1 (human)): 105%
- residual activity (BTK (human)): 95.2%
- residual activity (CAMK2A (human)): 93.7%
- residual activity (CLK3 (human)): 93.1%
- residual activity (CSNK1D (human)): 91.3%
- residual activity (CSNK1E (human)): 87.1%
- residual activity (CSNK1G1 (human)): 89.4%
- residual activity (CSNK1G3 (human)): 99.9%
- residual activity (DDR2 (human)): 94.6%
- residual activity (DYRK3 (human)): 94.9%
- residual activity (EPHA1 (human)): 87.8%
- residual activity (EPHA8 (human)): 93.9%
- residual activity (FGFR2 (human)): 95.7%
- residual activity (FGFR3 (human)): 101%
- residual activity (GSK3A (human)): 90.2%
- residual activity (HCK (human)): 91.9%
- residual activity (JAK2 JH1 JH2 (human)): 92.6%
- residual activity (MAP4K2 (human)): 93%
- residual activity (MARK2 (human)): 92.9%
- residual activity (MATK (human)): 86.7%
- residual activity (MERTK (human)): 87.8%
- residual activity (MST1R (human)): 94.3%
- residual activity (MUSK (human)): 87.8%
- residual activity (NEK11 (human)): 109%
- residual activity (NEK4 (human)): 90.4%
- residual activity (NTRK2 (human)): 90.2%
- residual activity (NUAK1 (human)): 86.6%
- residual activity (PHKG1 (human)): 93.3%
- residual activity (PIM1 (human)): 91.2%
- residual activity (PIM3 (human)): 104%
- residual activity (PLK1 (human)): 97.9%
- residual activity (PLK2 (human)): 94.7%
- residual activity (PRKX (human)): 96.2%
- residual activity (SGK3 (human)): 95.8%
- residual activity (SIK2 (human)): 98.9%
- residual activity (STK11 (human)): 86.4%
- residual activity (STK17A (human)): 93.8%
- residual activity (TSSK2 (human)): 102%
- residual activity (TYRO3 (human)): 102%
- residual activity (WNK2 (human)): 119%

SMILES: O=S(=O)(c1cccc2cnccc12)N1CCCNCC1
- residual activity (ACVRL1 (human)): 111%
- residual activity (BTK (human)): 96.5%
- residual activity (CAMK2A (human)): 99.9%
- residual activity (CLK3 (human)): 83.7%
- residual activity (CSNK1D (human)): 99.7%
- residual activity (CSNK1E (human)): 99.3%
- residual activity (CSNK1G1 (human)): 89.6%
- residual activity (CSNK1G3 (human)): 85%
- residual activity (DDR2 (human)): 92.2%
- residual activity (DYRK3 (human)): 89.1%
- residual activity (EPHA1 (human)): 79.9%
- residual activity (EPHA8 (human)): 106%
- residual activity (EPHB3 (human)): 95.4%
- residual activity (FGFR2 (human)): 97.6%
- residual activity (FGFR3 (human)): 94.4%
- residual activity (HCK (human)): 95.9%
- residual activity (JAK2 JH1 JH2 (human)): 107%
- residual activity (MAP3K3 (human)): 89.3%
- residual activity (MAP4K2 (human)): 45.7%
- residual activity (MARK2 (human)): 108%
- residual activity (MATK (human)): 99.6%
- residual activity (MERTK (human)): 88.3%
- residual activity (MST1R (human)): 92.7%
- residual activity (MUSK (human)): 97.6%
- residual activity (NEK11 (human)): 114%
- residual activity (NEK4 (human)): 90.7%
- residual activity (NTRK2 (human)): 102%
- residual activity (NUAK1 (human)): 73.2%
- residual activity (PHKG1 (human)): 90.8%
- residual activity (PIM1 (human)): 77%
- residual activity (PIM3 (human)): 91.4%
- residual activity (PLK1 (human)): 103%
- residual activity (PLK2 (human)): 100%
- residual activity (PRKX (human)): 23.5%
- residual activity (SGK3 (human)): 91.6%
- residual activity (SIK2 (human)): 97.7%
- residual activity (STK11 (human)): 97.6%
- residual activity (STK17A (human)): 98.2%
- residual activity (TSSK2 (human)): 80.2%
- residual activity (TYRO3 (human)): 87.9%
- residual activity (WNK2 (human)): 99.3%

SMILES: COc1ccc2c(c[n+](C)c3c4cc5c(cc4ccc23)OCO5)c1OC
- residual activity (ACVRL1 (human)): 99.2%
- residual activity (BTK (human)): 98.6%
- residual activity (CAMK2A (human)): 99.5%
- residual activity (CLK3 (human)): 95.2%
- residual activity (CSNK1D (human)): 92.9%
- residual activity (CSNK1E (human)): 90.7%
- residual activity (CSNK1G1 (human)): 106%
- residual activity (CSNK1G3 (human)): 92.5%
- residual activity (DDR2 (human)): 96.1%
- residual activity (DYRK3 (human)): 101%
- residual activity (EPHA1 (human)): 98.3%
- residual activity (EPHA8 (human)): 100%
- residual activity (EPHB3 (human)): 95.4%
- residual activity (FGFR2 (human)): 101%
- residual activity (FGFR3 (human)): 99.1%
- residual activity (GSK3A (human)): 105%
- residual activity (JAK2 JH1 JH2 (human)): 102%
- residual activity (MAP3K3 (human)): 101%
- residual activity (MAP4K2 (human)): 96.1%
- residual activity (MARK2 (human)): 95%
- residual activity (MATK (human)): 89.5%
- residual activity (MERTK (human)): 90.8%
- residual activity (MST1R (human)): 97.8%
- residual activity (MUSK (human)): 98.2%
- residual activity (NEK11 (human)): 106%
- residual activity (NEK4 (human)): 96.6%
- residual activity (NTRK2 (human)): 104%
- residual activity (NUAK1 (human)): 96.6%
- residual activity (PHKG1 (human)): 90.4%
- residual activity (PIM1 (human)): 97%
- residual activity (PIM3 (human)): 99.6%
- residual activity (PLK1 (human)): 93.6%
- residual activity (PLK2 (human)): 97.6%
- residual activity (PRKX (human)): 95.1%
- residual activity (SGK3 (human)): 96%
- residual activity (SIK2 (human)): 95.5%
- residual activity (STK11 (human)): 82.1%
- residual activity (STK17A (human)): 104%
- residual activity (TYRO3 (human)): 95.7%
- residual activity (WNK2 (human)): 98.5%

- residual activity (ACVRL1 (human)): 103%
- residual activity (BTK (human)): 93.1%
- residual activity (CAMK2A (human)): 73.8%
- residual activity (CLK3 (human)): 71.1%
- residual activity (CSNK1D (human)): 83.5%
- residual activity (CSNK1E (human)): 76.1%
- residual activity (CSNK1G1 (human)): 104%
- residual activity (CSNK1G3 (human)): 93.3%
- residual activity (DDR2 (human)): 105%
- residual activity (EPHA1 (human)): 108%
- residual activity (EPHA8 (human)): 91.7%
- residual activity (EPHB3 (human)): 98.6%
- residual activity (FGFR2 (human)): 74.1%
- residual activity (FGFR3 (human)): 74.1%
- residual activity (GSK3A (human)): 98.4%
- residual activity (HCK (human)): 63.5%
- residual activity (JAK2 JH1 JH2 (human)): 40.6%
- residual activity (MAP3K3 (human)): 63.6%
- residual activity (MAP4K2 (human)): 53.5%
- residual activity (MARK2 (human)): 44.1%
- residual activity (MATK (human)): 100%
- residual activity (MERTK (human)): 21.4%
- residual activity (MST1R (human)): 103%
- residual activity (MUSK (human)): 84.2%
- residual activity (NEK11 (human)): 103%
- residual activity (NEK4 (human)): 79.7%
- residual activity (NTRK2 (human)): 35.7%
- residual activity (NUAK1 (human)): 15.9%
- residual activity (PHKG1 (human)): 45.2%
- residual activity (PIM1 (human)): 103%
- residual activity (PIM3 (human)): 106%
- residual activity (PLK1 (human)): 96.9%
- residual activity (PLK2 (human)): 96.4%
- residual activity (PRKX (human)): 104%
- residual activity (SGK3 (human)): 101%
- residual activity (SIK2 (human)): 86%
- residual activity (STK11 (human)): 89.9%
- residual activity (STK17A (human)): 97%
- residual activity (TSSK2 (human)): 96.3%
- residual activity (TYRO3 (human)): 34.7%
- residual activity (WNK2 (human)): 112%
SMILES: Cc1[nH]c(/C=C2\C(=O)Nc3ccc(S(=O)(=O)N(C)c4cccc(Cl)c4)cc32)c(C)c1C(=O)N1CCN(C)CC1
